According to patent US4473583A, “Compositions containing certain derivatives of 4-phenyl-4-oxobuten-2-oic acid and methods of treatment using them” (Roussel UCLAF, priority 1981, dated 1984):

Key:
acute toxicity (LD50) = details: mouse, in vivo; mice, oral
Description: (3) Determination of the Acute Toxicity
The LD50 was evaluated after the administration of the products orally to mice.

[1] = tested on: total acidity of the gastric secretions; assay: anti-gastric secretion activity (pylorus ligation, Shay technique); format: in vivo; details: male rats, pylorus ligated, 10 mg/kg intraduodenally, 3 hours
Description: (1) Determination of the anti-gastric secretion activity
The technique used is described by H. SHAY et al. in Gastroenterology 5, 43, 1945.
Male rats were used having a weight of about 200 g (10 animals per lot), and were kept without food for 48 hours but allowed a 8% gluclose solution ad libitum. After the rats were slightly anesthetized with ether, the pylorus of each was ligated. After the end of the operation, the product to be tested in different doses or, in the case of the control animals a solution of 0.5% carboxymethyl cellulose, was administered intraduodenally, after which the abdominal incision sutured.
Three hours later, the animals were sacrified and their stomachs removed after ligating the esophagus. The gastric juice was removed and centrifuged. The volume of gastric juice obtained was then determined and the total acidity of the gastric juice was obtained by titrating a 100 μl sample of gastric juice to a pH of 7 by means of 1/10 N sodium hydroxide solution.
The percentages of the variation of the total acidity of the gastric secretions, between test animals and control animals were calculated and are set forth in the table appearing below.

stomach ulcers = assay: anti-ulcer activity, stress ulcer (stress and cold); format: in vivo; details: female rats, stress and cold (8° C., two hours), 10 mg/kg through an esophageal tube, 2 hours before stress
Description: (2) Determination of the anti-ulcer activity Stress Ulcer
The technique consists of inducing stomach ulcers by stress in rats (stress and cold). The technique used is described by E. C. SENAY and R. J. LEVINE, Proc. Soc. Exp. Biol. 124, 1221 (1967).
Female rats of 150 g (5 animals per lot) were used which has been fasting for 48 hours with water ad libitum and glucose solution for 8 hours. Through an esophageal tube, the animals received a test compound, or a solution of 0.5% carboxy methyl cellulose in the case of the control animals. Two hours later, the animals were bundled in a jacket of netting. Their paws were bound and the entire unit was placed in a refrigerator at 8° C. for two hours. The rats were freed and killed by ether.
Their stomachs were removed, opened along the greater curvature and examined with a binocular magnifier. The seriousness of the lesions was graded from 1 to 3 for each stomach.
For each lot of rats, the average intensity of the ulcerations was calculated. The degree of ulceration for test animals was compared with the control animals for each lot.

Row | SMILES | LD50 (acute toxicity (LD50)) [mg/kg] | Anti-secretion activity: Acid Concentration (% variation as compared with the controls) [1] [%] | Anti-ulcer activity: Ulceration (% variation as compared with the controls) (stomach ulcers) [%]
1 | O=C(O)/C=C/C(=O)c1ccccc1 [Example 1, (E) 4-phenyl-4-oxobuten-2-oic acid] | 250 | -66 | -54
2 | O=C(O)/C=C\C(=O)c1ccccc1 [Example 3, (Z) 4-phenyl-4-oxobuten-2-oic acid] | 370 | -81 | -93
3 | Cc1ccc(C(=O)C=CC(=O)O)cc1 [Example 2, 4-tolyl-4-oxobuten-2-oic acid] | 250 | -61 | -39
